# Measured values from ChEMBL document CHEMBL3882724 (2013).
# pIC50: −log10 of the molar value.
# What was measured:
# [1] = target: T1, Steroid 17-alpha-hydroxylase/17,20 lyase (Homo sapiens, UniProt P05093); experiment: Inhibition of human C17,20-lyase in human testis microsomes at 10 nM using 17alpha-hydroxypregnenolone/[21-3H]-17alpha-hydroxypregnenolone as substrate after 30 mins by scintillation counting method relative to control; conditions: 0.5 h
# T1 sequence (P05093 whole entry): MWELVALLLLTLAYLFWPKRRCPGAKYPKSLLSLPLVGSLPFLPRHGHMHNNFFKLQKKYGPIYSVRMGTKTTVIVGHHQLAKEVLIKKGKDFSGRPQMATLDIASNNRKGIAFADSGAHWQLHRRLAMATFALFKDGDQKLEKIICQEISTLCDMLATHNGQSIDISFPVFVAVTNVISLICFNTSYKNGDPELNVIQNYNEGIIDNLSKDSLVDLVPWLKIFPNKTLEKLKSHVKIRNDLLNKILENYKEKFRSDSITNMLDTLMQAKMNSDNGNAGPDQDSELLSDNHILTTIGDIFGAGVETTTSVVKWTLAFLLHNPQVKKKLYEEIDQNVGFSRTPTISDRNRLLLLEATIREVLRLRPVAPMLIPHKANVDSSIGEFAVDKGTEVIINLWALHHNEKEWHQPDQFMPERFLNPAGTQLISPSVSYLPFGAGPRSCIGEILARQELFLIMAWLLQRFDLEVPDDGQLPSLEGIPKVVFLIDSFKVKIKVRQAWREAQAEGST
# [2] = Half life in human liver microsomes at 1 uM by LC-MS/MS analysis
# [3] = Half life in rat liver microsomes at 1 uM by LC-MS/MS analysis
# [4] = target: T1, Steroid 17-alpha-hydroxylase/17,20 lyase; experiment: Inhibition of CYP17 in human testicular microsomes using 17alpha-hydroxypregnenolone as substrate assessed as decrease in DHEA levels after 90 mins by ELISA; set-up: species or system Testis
# CYP11B = target: T2, CYP11B (Rattus norvegicus, UniProt P15393+P30099); experiment: Inhibition of Sprague-Dawley rat adrenal mitochondrial CYP11B assessed as decrease in conversion of 11-deoxycortisol to cortisol at 100 nM incubated for 60 mins by ELISA relative to control; type: protein assay; conditions: adrenal mitochondria, probe 11-deoxycortisol
# T2 sequence (P30099 whole entry): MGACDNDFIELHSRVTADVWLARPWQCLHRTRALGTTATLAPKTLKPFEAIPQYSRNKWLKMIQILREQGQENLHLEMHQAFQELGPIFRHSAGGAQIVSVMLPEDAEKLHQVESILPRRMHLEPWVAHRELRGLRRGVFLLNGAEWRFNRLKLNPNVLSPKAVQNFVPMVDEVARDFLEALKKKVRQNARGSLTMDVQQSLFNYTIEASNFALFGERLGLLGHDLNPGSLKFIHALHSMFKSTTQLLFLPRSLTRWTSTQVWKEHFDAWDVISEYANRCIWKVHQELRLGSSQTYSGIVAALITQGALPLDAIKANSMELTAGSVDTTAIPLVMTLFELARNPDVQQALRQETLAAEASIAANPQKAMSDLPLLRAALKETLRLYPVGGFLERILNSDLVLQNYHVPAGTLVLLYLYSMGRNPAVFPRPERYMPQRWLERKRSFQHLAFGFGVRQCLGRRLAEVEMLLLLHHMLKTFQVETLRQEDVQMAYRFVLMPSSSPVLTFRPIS
# T2 sequence (P15393 whole entry): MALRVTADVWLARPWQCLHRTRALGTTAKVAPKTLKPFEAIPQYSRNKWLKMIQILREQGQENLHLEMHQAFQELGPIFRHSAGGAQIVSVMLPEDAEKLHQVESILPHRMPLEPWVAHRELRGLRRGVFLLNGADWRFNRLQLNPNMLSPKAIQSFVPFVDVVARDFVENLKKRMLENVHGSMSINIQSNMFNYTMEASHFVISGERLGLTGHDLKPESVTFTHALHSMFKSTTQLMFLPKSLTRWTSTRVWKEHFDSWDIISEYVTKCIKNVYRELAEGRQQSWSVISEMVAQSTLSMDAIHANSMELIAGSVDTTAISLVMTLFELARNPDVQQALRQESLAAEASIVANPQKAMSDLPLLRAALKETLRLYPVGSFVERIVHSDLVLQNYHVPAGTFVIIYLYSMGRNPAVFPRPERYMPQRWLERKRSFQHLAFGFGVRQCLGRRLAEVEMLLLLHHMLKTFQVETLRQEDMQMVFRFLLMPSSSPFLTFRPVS
# [5] = target: T1, Steroid 17-alpha-hydroxylase/17,20 lyase; experiment: Inhibition of CYP17 in human testicular microsomes using 17alpha-hydroxypregnenolone as substrate assessed as decrease in DHEA levels at 10 nM after 90 mins by ELISA relative to control; set-up: species or system Testis; conditions: 1.5 h
# [6] = target: T3, CYP21 (steroid 21-hydroxylase) (Homo sapiens, UniProt P08686); experiment: Inhibition of human CYP21 transfected in HEK293 cells assessed as decrease in conversion of progesterone to 11-deoxycorticosterone at 100 nM preincubated for 5 hrs followed by progesterone addition measured after 20 hrs by ELISA relative to control; type: cell-based; conditions: HEK293 cells transfected with human CYP21, probe progesterone
# T3 sequence (P08686 whole entry): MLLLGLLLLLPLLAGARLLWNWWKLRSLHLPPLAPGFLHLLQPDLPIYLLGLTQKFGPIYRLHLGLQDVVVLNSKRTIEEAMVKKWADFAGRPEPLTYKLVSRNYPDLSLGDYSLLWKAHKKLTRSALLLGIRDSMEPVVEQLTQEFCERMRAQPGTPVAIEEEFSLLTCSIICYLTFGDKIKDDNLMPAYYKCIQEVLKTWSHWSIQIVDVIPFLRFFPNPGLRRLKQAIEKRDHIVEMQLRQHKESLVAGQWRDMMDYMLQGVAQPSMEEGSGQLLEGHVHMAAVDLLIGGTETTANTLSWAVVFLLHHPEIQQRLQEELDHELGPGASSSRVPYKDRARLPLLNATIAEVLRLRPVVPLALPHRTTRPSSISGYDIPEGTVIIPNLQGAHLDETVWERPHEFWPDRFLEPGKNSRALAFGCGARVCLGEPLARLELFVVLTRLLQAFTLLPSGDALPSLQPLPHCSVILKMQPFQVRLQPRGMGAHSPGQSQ
# [7] = target: T1, Steroid 17-alpha-hydroxylase/17,20 lyase; experiment: Inhibition of CYP17 in human H295R cells assessed as decrease in testosterone levels after 24 hrs by ELISA; type: cell-based
SMILES,inhibition at 0.01 µM [1] [%],half-life at 1 µM [2] [min],half-life at 1 µM [3] [min],pIC50 [4],"inhibition at 1 h, 0.1 µM (CYP11B) [%]",inhibition at 0.01 µM [5] [%],"inhibition at 20 h, 0.1 µM [6] [%]",pIC50 [7]
C[C@]12CCC(=O)OC[C@@H]1CC[C@@H]1[C@@H]2CC[C@]2(C)C(c3cccnc3)=CC[C@@H]12,≥ 38,1 to 50,10 to 60,≥ 7.96,,,,
C[C@]12CC[C@H]3[C@@H](CC[C@H]4CC(=O)CC[C@@]43C)C1=CC=C2n1ccnc1,,1 to 50,,≥ 7.96,< 32,≥ 80,< 30,
C[C@]12CC[C@H]3[C@@H](CCN4C(=O)C=CCC[C@]34C)[C@@H]1CC=C2c1cccnc1,≥ 38,,,,,,,
C[C@]12CC(O)C[C@@H]1CC[C@@H]1[C@@H]2CC[C@]2(C)C(n3ccnc3)=CC[C@@H]12 (stereo not given in full),,10 to 60,10 to 60,≥ 7.96,≥ 50,≥ 80,≥ 30,≥ 7.82
C[C@]12CC[C@H]3[C@@H](CCN4C(=O)CC=CC[C@]34C)[C@@H]1CC=C2c1cccnc1,≥ 38,1 to 10,1 to 10,,,,,
C[C@]12CCOC(=O)C[C@@H]1CC[C@@H]1[C@@H]2CC[C@]2(C)C(c3cccnc3)=CC[C@@H]12,≥ 38,1 to 50,10 to 60,≥ 7.96,,,,
C[C@]12CC[C@H]3[C@@H](CCC4=CC(=O)CC[C@@]43C)C1=CC=C2n1ccnc1,,≥ 50,10 to 60,≥ 7.96,≥ 50,≥ 80,< 30,
C[C@]12CCNC(=O)C=C1CC[C@@H]1[C@@H]2CC[C@]2(C)C(n3cncn3)=CC[C@@H]12,,1 to 10,1 to 10,≥ 7.96,< 32,≥ 80,≥ 30,
COc1cncc(C2=CC[C@H]3[C@@H]4CC[C@H]5COC(=O)CC[C@]5(C)[C@H]4CC[C@]23C)c1,≥ 38,,,,,,,
CCOc1cncc(C2=CC[C@H]3[C@@H]4CC[C@H]5COC(=O)CC[C@]5(C)[C@H]4CC[C@]23C)c1,3 to 38,,,,,,,
C[C@]12CC[C@H]3[C@@H](CC=C4C[C@@H](O)CC[C@@]43C)C1=CC=C2c1cccnc1,,1 to 50,10 to 60,≥ 7.96,< 32,50 to 80,< 30,≥ 7.82
